In US6346514B1, “Pharmaceutical lysine-containing polypeptide compositions and methods of use thereof” (priority 1991, dated 2002):

System: Vibrio anguillarum (V-775)
Assay: Vaccine augmentation in Rainbow trout challenged with Vibrio anguillarum
Assay type: in vivo, Rainbow trout (Oncorhynchus mykiss)
Experimental: In the present investigation, fish were obtained and inoculated at approximately 12 weeks of age. Immunologic studies were conducted under a variety of conditions in which fish were provided with vaccination to observe vaccine augmentation, and under conditions in which no vaccine was provided prior to inoculum. The effects of exposure time, HM897 concentration, and vaccine on mortalities relative to control studies in which no HM897 was administered provided data for analysis of the immunologic effect of HM897.
The study was conducted using Rainbow trout (Oncorhynchus mykiss) to compare the effects of a standard fish vaccine to the protection provided by varying dosages of HM897. The fish were challenged with Vibrio anguillarum (V-775), a bacteria that causes fatal vibriosis, typically 3-5 days following pathogen exposure.
Rainbow Trout (Oncorhynchus mykiss) weighing approximately 5 grams were used as test organisms. The fish were obtained from Cran-Mar Trout Farm. Upon arrival at BRL's facility, the fish were quarantined for a minimum of seven days, and observed to be disease free. During this period, the fish were held at a stable temperature. There was consistent water quality in an aerated flow-through system with a flow rate of approximately 30 liters per hour. During the holding period the fish were observed daily for signs of disease, stress, injury, hemorrhaging, and external parasite. The fish were not fed 48 hours prior to testing.
The Rainbow trout used in this study weighed an average of 5 grams. The fish were divided into 21 groups with 50 fish per group. Each group of 50 fish was maintained in two 10-gallon tanks (25 fish/tank).
The level of bacterial dilution to achieve a LD75 (the level designed to kill 75% of the non-vaccinated fish) was a dilution of 10^−4. to 10^−5. The challenge bacteria were grown for 48 hours at 25° C in trypticase soy broth. The 10^−4 dilution was made from this broth in 0.9% saline. All fish excepting the control group that received no bacterial challenge were inoculated 7 days after exposure to HM897.
Rainbow trout hatchling were exposed to the concentration of HM897 as described below. Some of the fish had been vaccinated while others had received no vaccination. In each tank, fifty vaccinated or unvaccinated fish were exposed for a period of 5 minutes to HM897, and then removed and placed in an assigned tank according to the group number.
The positive control group (III) received a vaccine made from Vibrio anguillarum (V-775). This was made through a fermentation and extraction process in the BRL laboratory facility and is equivalent to the aquaculture industry standard vibrio vaccine.
All groups scheduled to be challenged with the Vibrio anguillarum bacterium were challenged at the LD75 dilution on day seven of the experiment by i.p. injection of 0.1 mL of 10^−4 bacterial dilution. The fish were observed daily for mortalities.

## Thr-Ala-Glu-Glu-Lys (TAEEK) [HM897]
Day 17, Group IVd: vaccinated, HM897 100 μg/38 liters
  Cumulative Mortalities: 17
Day 17, Group Va: not vaccinated, HM897 10 μg/38 liters
  Cumulative Mortalities: 33
Day 17, Group Vb: not vaccinated, HM897 25 μg/38 liters
  Cumulative Mortalities: 33
Day 17, Group Vc: not vaccinated, HM897 75 μg/38 liters
  Cumulative Mortalities: 34
Day 18, Group IVa: vaccinated, HM897 2.5 μg/38 liters
  Cumulative Mortalities: 13
Day 18, Group IVb: vaccinated, HM897 10 μg/38 liters
  Cumulative Mortalities: 7
Day 18, Group IVc: vaccinated, HM897 50 μg/38 liters
  Cumulative Mortalities: 10
Day 18, Group IVd: vaccinated, HM897 100 μg/38 liters
  Cumulative Mortalities: 17
Day 18, Group Va: not vaccinated, HM897 10 μg/38 liters
  Cumulative Mortalities: 33
Day 18, Group Vb: not vaccinated, HM897 25 μg/38 liters
  Cumulative Mortalities: 33
Day 18, Group Vc: not vaccinated, HM897 75 μg/38 liters
  Cumulative Mortalities: 34
Day 18, Group Vd: not vaccinated, HM897 150 μg/38 liters
  Cumulative Mortalities: 32
Day 19, Group IVa: vaccinated, HM897 2.5 μg/38 liters
  Cumulative Mortalities: 13
Day 19, Group IVb: vaccinated, HM897 10 μg/38 liters
  Cumulative Mortalities: 7
Day 19, Group IVc: vaccinated, HM897 50 μg/38 liters
  Cumulative Mortalities: 10
Day 19, Group IVd: vaccinated, HM897 100 μg/38 liters
  Cumulative Mortalities: 17
Day 19, Group Va: not vaccinated, HM897 10 μg/38 liters
  Cumulative Mortalities: 33
Day 19, Group Vb: not vaccinated, HM897 25 μg/38 liters
  Cumulative Mortalities: 33
Day 19, Group Vc: not vaccinated, HM897 75 μg/38 liters
  Cumulative Mortalities: 34
Day 19, Group Vd: not vaccinated, HM897 150 μg/38 liters
  Cumulative Mortalities: 32
Day 20, Group IVa: vaccinated, HM897 2.5 μg/38 liters
  Cumulative Mortalities: 13
Day 20, Group IVb: vaccinated, HM897 10 μg/38 liters
  Cumulative Mortalities: 7
Day 20, Group IVc: vaccinated, HM897 50 μg/38 liters
  Cumulative Mortalities: 10
Day 20, Group IVd: vaccinated, HM897 100 μg/38 liters
  Cumulative Mortalities: 17
Day 20, Group Va: not vaccinated, HM897 10 μg/38 liters
  Cumulative Mortalities: 33
Day 20, Group Vb: not vaccinated, HM897 25 μg/38 liters
  Cumulative Mortalities: 33
Day 20, Group Vc: not vaccinated, HM897 75 μg/38 liters
  Cumulative Mortalities: 34
Day 20, Group Vd: not vaccinated, HM897 150 μg/38 liters
  Cumulative Mortalities: 32
Day 21, Group IVa: vaccinated, HM897 2.5 μg/38 liters
  Cumulative Mortalities: 13
Day 21, Group IVb: vaccinated, HM897 10 μg/38 liters
  Cumulative Mortalities: 7
Day 21, Group IVc: vaccinated, HM897 50 μg/38 liters
  Cumulative Mortalities: 10
Day 21, Group IVd: vaccinated, HM897 100 μg/38 liters
  Cumulative Mortalities: 17
Day 21, Group Va: not vaccinated, HM897 10 μg/38 liters
  Cumulative Mortalities: 33
Day 21, Group Vb: not vaccinated, HM897 25 μg/38 liters
  Cumulative Mortalities: 33
Day 21, Group Vc: not vaccinated, HM897 75 μg/38 liters
  Cumulative Mortalities: 34
Day 21, Group Vd: not vaccinated, HM897 150 μg/38 liters
  Cumulative Mortalities: 32
Group IVa: vaccinated, HM897 2.5 μg/38 liters
  Percent Mortalities: 26%
Group IVb: vaccinated, HM897 10 μg/38 liters
  Percent Mortalities: 14%
Group IVc: vaccinated, HM897 50 μg/38 liters
  Percent Mortalities: 20%
Group IVd: vaccinated, HM897 100 μg/38 liters
  Percent Mortalities: 34%
Group Va: not vaccinated, HM897 10 μg/38 liters
  Percent Mortalities: 66%
Group Vb: not vaccinated, HM897 25 μg/38 liters
  Percent Mortalities: 66%
Group Vc: not vaccinated, HM897 75 μg/38 liters
  Percent Mortalities: 68%
Group Vd: not vaccinated, HM897 150 μg/38 liters
  Percent Mortalities: 64%
Group Ve: not vaccinated, HM897 250 μg/38 liters
  Percent Mortalities: 68%
HM897 exposure without vaccine (Groups Va to Ve)
  protection against the bacterial infection: no protection
Table XI-3, Group IVa: vaccinated, HM897 2.5 μg/38 liters
  Total Mortalities: 13
Table XI-3, Group IVb: vaccinated, HM897 10 μg/38 liters
  Total Mortalities: 7
Table XI-3, Group IVc: vaccinated, HM897 50 μg/38 liters
  Total Mortalities: 10
Table XI-3, Group IVd: vaccinated, HM897 100 μg/38 liters
  Total Mortalities: 17
Table XI-3, Group Va: not vaccinated, HM897 10 μg/38 liters
  Total Mortalities: 33
Table XI-3, Group Vb: not vaccinated, HM897 25 μg/38 liters
  Total Mortalities: 33
Table XI-3, Group Vc: not vaccinated, HM897 75 μg/38 liters
  Total Mortalities: 34
Table XI-3, Group Vd: not vaccinated, HM897 150 μg/38 liters
  Total Mortalities: 32
Table XI-3, Group Ve: not vaccinated, HM897 250 μg/38 liters
  Total Mortalities: 34
Table XI-4, Group IVa: vaccinated, HM897 2.5 μg/38 liters
  Total Mortalities: 13
Table XI-4, Group IVb: vaccinated, HM897 10 μg/38 liters
  Total Mortalities: 7
Table XI-4, Group IVc: vaccinated, HM897 50 μg/38 liters
  Total Mortalities: 10
Table XI-4, Group IVd: vaccinated, HM897 100 μg/38 liters
  Total Mortalities: 17
Table XI-4, Group Va: not vaccinated, HM897 10 μg/38 liters
  Total Mortalities: 33
Table XI-4, Group Vb: not vaccinated, HM897 25 μg/38 liters
  Total Mortalities: 33
Table XI-4, Group Vc: not vaccinated, HM897 75 μg/38 liters
  Total Mortalities: 34
Table XI-4, Group Vd: not vaccinated, HM897 150 μg/38 liters
  Total Mortalities: 32
Table XI-4, Group Ve: not vaccinated, HM897 250 μg/38 liters
  Total Mortalities: 34
Vaccinated fish exposed to HM897
  augmentation of vaccinations: statistically significant effect
